Experimental data as given in patent publication US20240246966A1, “NEW PYRAZOLO[1,5-a] PYRIMIDINE DERIVATIVES AS SIGMA LIGANDS” (ACONDICIONAMIENTO TARRASENSE, priority 2021, published 2024).
pKi: −log10 of the molar value.

Experiments:
Human σ1 Receptor = molecular target: T1, Human σ1 Receptor (Homo sapiens, UniProt Q99720); assay: Human σ1 receptor radioligand assay ([3H](+)-pentazocine, transfected HEK-293 membranes); settings: human σ1, [3H](+)-pentazocine 5 nM, binding expressed as Ki, read-out: Binding σ-1
T1 construct: expressed in transfected cells; host or cells: HEK-293
Protocol: Human σ1 Receptor Radioligand Assay
Transfected HEK-293 membranes (7 μg) were incubated with 5 nM of [^3H](+)-pentazocine in assay buffer containing Tris-HCl 50 mM at pH 8. NBS (non-specific binding) was measured by adding 10 μM haloperidol. The binding of the test compound was measured at either one concentration (% inhibition at 1 or 10 μM) or five different concentrations to determine affinity values (Ki). Plates were incubated at 37° C. for 120 minutes. After the incubation period, the reaction mix was then transferred to MultiScreen HTS, FC plates (Millipore), filtered and plates were washed 3 times with ice-cold 10 mM Tris-HCL (pH 7.4). Filters were dried and counted at approximately 40% efficiency in a MicroBeta scintillation counter (Perkin-Elmer) using EcoScint liquid scintillation cocktail.

Human σ2/TMEM97 receptor = molecular target: T2, Human σ2/TMEM97 receptor (Homo sapiens, UniProt Q5BJF2); assay: Binding assay to human σ2/TMEM97 receptor ([3H]-DTG, transfected HEK-293 membranes); settings: human σ2/TMEM97, [3H]-DTG 10 nM, binding expressed as Ki, read-out: Binding σ-2
T2 construct: expressed in transfected cells; host or cells: HEK-293
Protocol: Binding Assay to Human ρ2/TMEM97 Receptor
Transfected HEK-293 membranes (15 μg) were incubated with 10 nM [^3H]-1,3-Di-o-tolylguanidine ( DTG) in assay buffer containing Tris-HCl 50 mM at pH 8.0. NSB (non-specific binding) was measured by adding 10 μM haloperidol. The binding of the test compound was measured at either one concentration (% inhibition at 1 or 10 μM) or five different concentrations to determine affinity values (Ki). Plates were incubated at 25° C. for 120 minutes. After the incubation period, the reaction mix was transferred to MultiScreen HTS, FC plates (Millipore), filtered and washed 3 times with ice-cold 10 mM Tris-HCL (pH 8.0). Filters were dried and counted at approximately 40% efficiency in a MicroBeta scintillation counter (Perkin-Elmer) using EcoScint liquid scintillation cocktail.

T2 sequence (Q5BJF2 whole entry): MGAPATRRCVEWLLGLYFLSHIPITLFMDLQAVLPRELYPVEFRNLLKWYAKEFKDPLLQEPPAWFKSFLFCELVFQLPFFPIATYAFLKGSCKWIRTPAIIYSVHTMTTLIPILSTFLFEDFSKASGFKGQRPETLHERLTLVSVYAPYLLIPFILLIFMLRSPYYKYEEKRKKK
T1 sequence (Q99720 whole entry): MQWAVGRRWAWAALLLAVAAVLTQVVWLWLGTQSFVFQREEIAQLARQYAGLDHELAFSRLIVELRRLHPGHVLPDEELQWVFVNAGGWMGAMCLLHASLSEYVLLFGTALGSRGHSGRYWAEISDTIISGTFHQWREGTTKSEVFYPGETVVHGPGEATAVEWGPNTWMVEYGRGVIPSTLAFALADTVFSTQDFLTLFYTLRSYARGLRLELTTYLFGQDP

Structure (SMILES)	pKi (Human σ1 Receptor)	pKi (Human σ2/TMEM97 receptor)
FC(F)(F)c1cc(-c2cnn3cc(CN4CCCC4)cnc23)ccn1 [Example 1, 6-(Pyrrolidin-1-ylmethyl)-3-(2-(trifluoromethyl)pyridin-4-yl)pyrazolo[1,5-a]pyrimidine]	> 7.00	< 6.00
c1cc(-c2cnn3cc(CN4CCCC4)cnc23)ccn1 [Example 2, 3-(Pyridin-4-yl)-6-(pyrrolidin-1-ylmethyl)pyrazolo[1,5-a]pyrimidine]	6.30 to 7.00	< 6.00
Fc1cnccc1-c1cnn2cc(CN3CCCC3)cnc12 [Example 3, 3-(3-Fluoropyridin-4-yl)-6-(pyrrolidin-1-ylmethyl)pyrazolo[1,5-a]pyrimidine]	> 7.00	< 6.00
COc1ncccc1-c1cnn2cc(CN3CCCC3)cnc12 [Example 4, 3-(2-Methoxypyridin-3-yl)-6-(pyrrolidin-1-ylmethyl)pyrazolo[1,5-a]pyrimidine]	> 7.00	< 6.00
c1ccc(C2CCN(Cc3cnc4c(-c5ccncc5)cnn4c3)CC2)cc1 [Example 5, 6-((4-Phenylpiperidin-1-yl)methyl)-3-(pyridin-4-yl)pyrazolo[1,5-a]pyrimidine]	> 7.00	< 6.00
FC(F)(F)c1cc(-c2cnn3cc(CN4CCC(c5ccccc5)CC4)cnc23)ccn1 [Example 6, 6-((4-Phenylpiperidin-1-yl)methyl)-3-(2-(trifluoromethyl)pyridin-4-yl)pyrazolo[1,5-a]pyrimidine]	> 7.00	6.30 to 7.00
FC(F)(F)c1cc(-c2cnn3cc(CN4CCC5(CCO5)CC4)cnc23)ccn1 [Example 7, 7-((3-(2-(Trifluoromethyl)pyridin-4-yl)pyrazolo[1,5-a]pyrimidin-6-yl)methyl)-1-oxa-7-azaspiro[3.5]nonane]	6.30 to 7.00	< 6.00
Fc1cnccc1-c1cnn2cc(CN3CCC4(CCO4)CC3)cnc12 [Example 8, 7-((3-(3-Fluoropyridin-4-yl)pyrazolo[1,5-a]pyrimidin-6-yl)methyl)-1-oxa-7-azaspiro[3.5]nonane]	6.00 to 6.30	< 6.00
FC(F)(F)c1cc(-c2cnn3cc(CN4CCC5(CC4)COC5)cnc23)ccn1 [Example 9, 7-((3-(2-(Trifluoromethyl)pyridin-4-yl)pyrazolo[1,5-a]pyrimidin-6-yl)methyl)-2-oxa-7-azaspiro[3.5]nonane]	> 7.00	< 6.00
FC(F)(F)c1cc(-c2cnn3cc(CN4CCC5(CCOC5)CC4)cnc23)ccn1 [Example 10, 8-((3-(2-(Trifluoromethyl)pyridin-4-yl)pyrazolo[1,5-a]pyrimidin-6-yl)methyl)-2-oxa-8-azaspiro[4.5]decane]	> 7.00	< 6.00
FC1(F)CCN(Cc2cnc3c(-c4ccnc(C(F)(F)F)c4)cnn3c2)CC1 [Example 11, 6-((4,4-Difluoropiperidin-1-yl)methyl)-3-(2-(trifluoromethyl)pyridin-4-yl)pyrazolo[1,5-a]pyrimidine]	6.00 to 6.30	< 6.00
CCN(CC)Cc1cnc2c(-c3ccnc(C(F)(F)F)c3)cnn2c1 [Example 12, N-Ethyl-N-((3-(2-(trifluoromethyl)pyridin-4-yl)pyrazolo[1,5-a]pyrimidin-6-yl)methyl)ethanamine]	> 7.00	< 6.00
FC(F)(F)c1ccc(-c2cnn3cc(CN4CCC5(CC4)COC5)cnc23)cn1 [Example 13, 7-((3-(6-(Trifluoromethyl)pyridin-3-yl)pyrazolo[1,5-a]pyrimidin-6-yl)methyl)-2-oxa-7-azaspiro[3.5]nonane]	> 7.00	6.00 to 6.30
FC(F)(F)c1cccc(-c2cnn3cc(CN4CCC5(CC4)COC5)cnc23)n1 [Example 14, 7-((3-(6-(Trifluoromethyl)pyridin-2-yl)pyrazolo[1,5-a]pyrimidin-6-yl)methyl)-2-oxa-7-azaspiro[3.5]nonane]	> 7.00	6.00 to 6.30
Cc1cc(-c2cnn3cc(CN4CCC5(CC4)COC5)cnc23)ccn1 [Example 15, 7-((3-(2-Methylpyridin-4-yl)pyrazolo[1,5-a]pyrimidin-6-yl)methyl)-2-oxa-7-azaspiro[3.5]nonane]	> 7.00	< 6.00
Clc1cc(-c2cnn3cc(CN4CCC5(CC4)COC5)cnc23)ccn1 [Example 16, 7-((3-(2-Chloropyridin-4-yl)pyrazolo[1,5-a]pyrimidin-6-yl)methyl)-2-oxa-7-azaspiro[3.5]nonane]	> 7.00	< 6.00
FC(F)(F)c1ccncc1-c1cnn2cc(CN3CCC4(CC3)COC4)cnc12 [Example 17, 7-((3-(4-(Trifluoromethyl)pyridin-3-yl)pyrazolo[1,5-a]pyrimidin-6-yl)methyl)-2-oxa-7-azaspiro[3.5]nonane]	> 7.00	< 6.00
c1ccc(-c2cnn3cc(CN4CCC5(CC4)COC5)cnc23)nc1 [Example 18, 7-((3-(Pyridin-2-yl)pyrazolo[1,5-a]pyrimidin-6-yl)methyl)-2-oxa-7-azaspiro[3.5]nonane]	6.00 to 6.30	< 6.00
FC(F)(F)c1cnccc1-c1cnn2cc(CN3CCC4(CC3)COC4)cnc12 [Example 19, 7-((3-(3-(Trifluoromethyl)pyridin-4-yl)pyrazolo[1,5-a]pyrimidin-6-yl)methyl)-2-oxa-7-azaspiro[3.5]nonane]	> 7.00	< 6.00
Cc1nn2cc(CN3CCC4(CC3)COC4)cnc2c1-c1ccnc(C(F)(F)F)c1 [Example 20, 7-((2-Methyl-3-(2-(trifluoromethyl)pyridin-4-yl)pyrazolo[1,5-a]pyrimidin-6-yl)methyl)-2-oxa-7-azaspiro[3.5]nonane]	6.30 to 7.00	6.00 to 6.30
COC1CCN(Cc2cnc3c(-c4ccc(C(F)(F)F)nc4)cnn3c2)CC1 [Example 21, 6-((4-Methoxypiperidin-1-yl)methyl)-3-(6-(trifluoromethyl)pyridin-3-yl)pyrazolo[1,5-a]pyrimidine]	> 7.00	< 6.00
FC(F)(F)c1ccc(-c2cnn3cc(CN4CC5(CCOCC5)C4)cnc23)cn1 [Example 22, 2-((3-(6-(Trifluoromethyl)pyridin-3-yl)pyrazolo[1,5-a]pyrimidin-6-yl)methyl)-7-oxa-2-azaspiro[3.5]nonane]	> 7.00	< 6.00
COC1CCN(Cc2cnc3c(-c4ccnc(C)c4)cnn3c2)CC1 [Example 23, 6-((4-Methoxypiperidin-1-yl)methyl)-3-(2-methylpyridin-4-yl)pyrazolo[1,5-a]pyrimidine]	6.30 to 7.00	< 6.00
Cc1cc(-c2cnn3cc(CN4CCCOCC4)cnc23)ccn1 [Example 24, 4-((3-(2-Methylpyridin-4-yl)pyrazolo[1,5-a]pyrimidin-6-yl)methyl)-1,4-oxazepane]	6.30 to 7.00	< 6.00
COCC1CCN(Cc2cnc3c(-c4ccnc(C)c4)cnn3c2)CC1 [Example 25, 6-((4-(Methoxymethyl)piperidin-1-yl)methyl)-3-(2-methylpyridin-4-yl)pyrazolo[1,5-a]pyrimidine]	> 7.00	< 6.00
Cc1cc(-c2cnn3cc(CN4CCC5(CCOCC5)CC4)cnc23)ccn1 [Example 26, 9-((3-(2-Methylpyridin-4-yl)pyrazolo[1,5-a]pyrimidin-6-yl)methyl)-3-oxa-9-azaspiro[5.5]undecane]	6.30 to 7.00	< 6.00
